This note sets out measurements from patent publication US5830434A, “Methods of treating non-insulin dependent diabetes mellitus with pancreatic polypeptide” (Medical University of South Carolina Foundation for …, priority 1997, dated 1998).

For assay [1], the target named is T1, glucagon receptor (Rattus norvegicus, UniProt P30082).
T1 construct: from tissue; host or cells: liver plasma membranes of lean and fatty (fa/fa) Zucker rats
Put plainly: Glucagon competition binding in liver plasma membranes (50 pM labeled glucagon, with and without GTP). Further details: species or system Zucker rat.

The next assay concerns adenylyl cyclase. Put plainly: Adenylyl cyclase assay in liver plasma membranes. Particulars: for effect of PP treatment on efficacy of glucagon in activating adenylyl cyclase: PP 200 μg/day/kg s.c. five days. Format: biochemical, Zucker rat.
Assay [2] deals with G proteins migrating at 41 kDa in liver plasma membranes. Put plainly: Receptor dependent labeling of hepatocyte G proteins with AA-[32P]GTP. Format: biochemical. The procedure:
Receptor dependent labeling of hepatocyte G proteins with 4-Azidoanilido-α[^32 P]GTP. The protocol for labeling G proteins with AA-GTP was as described previously (11). The AA-[32P]-GTP used in the labeling experiments was prepared according to the protocol of Offermans et al. (6,7).
The purpose of these labeling studies was to determine whether PP stimulated the binding of AA-[^32 P]GTP to proteins migrating at the known molecular weight of G proteins in liver plasma membranes. […] Incubation of liver plasma membranes with 1 μM angiotensin II produced a two-fold increase in labeling of G protein(s) migrating at 41 kDa on SDS PAGE gels The 41 kDa band represents the pertussis-sensitive G protein family that is expressed in hepatocytes and which couples to angiotensin II receptors.

Assay [3] deals with T1, glucagon receptor. Put plainly: Glucagon saturation binding in liver plasma membranes. More on the design: species or system Zucker rat. The procedure:
(§1) Experimental Animal Protocol. Lean (+/?) and fatty (fa/fa) Zucker rats were obtained from Harlan Labs at seven weeks of age and randomly assigned to two groups within each phenotype. One group was injected subcutaneously with PP (Peninsula Labs (Belmont, Calif.) (200 μg/day/kg body weight) in a vehicle of physiological saline (0.9% w/v) while the other group was injected with only vehicle. The two groups within each phenotype received their respective treatments for five days, after which the animals were weighed and sacrificed following an overnight fast. Blood samples were obtained from each animal for assays of plasma glucose and insulin according to standard methods known in the art (3) and the pancreas was removed and subjected to an acid-ethanol extraction (0.1N HCl, 70% ethanol) as described previously for assay of pancreatic insulin (3). Livers were removed into ice cold balanced salt solution. […]
Binding curves were analyzed using nonlinear least squares.

The next assay concerns Gs α. In words: Western blot assay of Gs α in liver plasma membranes. Format: in vivo, Zucker rat. Particulars: PP 200 μg/day/kg s.c. five days. As for the experimental part:
as §1, with “(3).” for “(3). Livers were removed into ice cold balanced salt solution.”
Purified liver plasma membranes were solubilized on ice for one hour in 20 mM Tris, 1 mM EDTA, 1 mM DTT, 100 mM NaCl and 0.9% sodium cholate (pH 8.0). […] Following the procedure of Mumby (20), the PVDF membranes were probed with Gs α IgG and the bands were detected with ^125 I-labeled goat anti-rabbit IgG (1.0×10^6 cpm/ml). […]
In performing the Western blot assays, protein was carefully measured in the liver plasma membrane supernatant to assure that equal amounts of soluble membrane protein would be loaded from the respective treatment groups.
(In western blotting, separated proteins are transferred to a membrane and probed.)

T1 sequence (P30082 27-485): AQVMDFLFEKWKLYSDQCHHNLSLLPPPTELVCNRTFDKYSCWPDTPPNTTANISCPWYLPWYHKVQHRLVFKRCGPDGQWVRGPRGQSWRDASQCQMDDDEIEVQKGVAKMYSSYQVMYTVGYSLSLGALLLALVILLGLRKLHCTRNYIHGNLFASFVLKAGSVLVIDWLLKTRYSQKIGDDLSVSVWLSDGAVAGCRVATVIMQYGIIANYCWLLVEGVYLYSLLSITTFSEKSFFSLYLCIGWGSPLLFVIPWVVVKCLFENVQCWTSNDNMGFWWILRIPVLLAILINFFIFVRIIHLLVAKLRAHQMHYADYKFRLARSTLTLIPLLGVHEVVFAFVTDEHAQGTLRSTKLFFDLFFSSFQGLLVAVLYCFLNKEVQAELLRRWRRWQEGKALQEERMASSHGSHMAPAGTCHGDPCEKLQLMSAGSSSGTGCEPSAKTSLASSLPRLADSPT
Experimental for adenylyl cyclase: Lean (+/?) and fatty (fa/fa) Zucker rats were obtained from Harlan Labs at seven weeks of age and randomly assigned to two groups within each phenotype. One group was injected subcutaneously with PP (Peninsula Labs (Belmont, Calif.) (200 μg/day/kg body weight) in a vehicle of physiological saline (0.9% w/v) while the other group was injected with only vehicle. The two groups within each phenotype received their respective treatments for five days, after which the animals were weighed and sacrificed following an overnight fast. Blood samples were obtained from each animal for assays of plasma glucose and insulin according to standard methods known in the art (3) and the pancreas was removed and subjected to an acid-ethanol extraction (0.1N HCl, 70% ethanol) as described previously for assay of pancreatic insulin (3). Livers were removed into ice cold balanced salt solution. After cooling, each liver was cleaned of connective tissue and minced into 2-4 mm pieces with scissors in 5 ml of ice-cold homogenizing buffer (50 mM Hepes, pH 6.5, 5 mM EDTA, 3 mM orthophenanthroline, 0.2 μM iodoacetic acid, 1 mM PMSF, 25 μm leupeptin (3). The minced liver was homogenized in a 40 ml Dounce homogenizer in 25 ml of homogenizing buffer with 25 strokes of the loose pestle and three strokes of the tight pestle. The homogenate was centrifuged for five minutes at 3000×g. The supernatant was removed and centrifuged for 20 min at 16,000×g. The resulting pellet was retained, resuspended in phosphate buffered saline (PBS) containing 5 mM MgCl2 and homogenized with five strokes of the Dounce homogenizer. After centrifuging for 20 min at 16,000×g, the membrane pellet was resuspended in homogenizing buffer containing 0.1% bovine serum albumin (BSA). Aliquots were frozen in liquid nitrogen and stored at -80° C.
Adenylyl cyclase activity leading to the production of cAMP was determined in liver plasma membranes by methods previously described (2, 4). […] Cyclic AMP formed in the reaction was measured in the supernatant by radioimmunoassay according to methods described previously (2, 4). […]

With `CC[C@H](C)[C@H](NC(=O)[C@H](Cc1ccc(O)cc1)NC(=O)[C@H](CCCNC(=N)N)NC(=O)[C@H](CCCNC(=N)N)NC(=O)[C@H](CC(C)C)NC(=O)[C@H](CC(=O)O)NC(=O)[C@H](C)NC(=O)[C@H](C)NC(=O)[C@H](Cc1ccc(O)cc1)NC(=O)[C@H](CCC(N)=O)NC(=O)[C@H](C)NC(=O)[C@H](CCSC)NC(=O)[C@H](CCC(N)=O)NC(=O)[C@H](CCC(=O)O)NC(=O)[C@@H]1CCCN1C(=O)[C@@H](NC(=O)[C@H](C)NC(=O)[C@H](CC(N)=O)NC(=O)[C@H](CC(=O)O)NC(=O)CNC(=O)[C@@H]1CCCN1C(=O)[C@H](Cc1ccc(O)cc1)NC(=O)[C@@H](NC(=O)[C@@H]1CCCN1C(=O)[C@H](CCC(=O)O)NC(=O)[C@H](CC(C)C)NC(=O)[C@@H]1CCCN1C(=O)[C@H](C)N)C(C)C)[C@@H](C)O)C(=O)N[C@@H](CC(N)=O)C(=O)N[C@@H](CCSC)C(=O)N[C@@H](CC(C)C)C(=O)N[C@H](C(=O)N[C@@H](CCCNC(=N)N)C(=O)N1CCC[C@H]1C(=O)N[C@@H](CCCNC(=N)N)C(=O)N[C@@H](Cc1ccc(O)cc1)C(N)=O)[C@@H](C)O` [PP], the entries for the “percentage of high affinity glucagon binding sites” value on glucagon receptor [1] (fatty Zucker rats treated with PP for five days) and at glucagon receptor [1] (lean Zucker rats treated with PP for five days) were 71% and 55%, respectively. Further, the “effect of PP treatment on efficacy of glucagon in activating adenylyl cyclase” value is “significant decrease in the efficacy of glucagon” in the assay on adenylyl cyclase (fatty Zucker rats) and “did not modify the efficacy of glucagon” in the assay with adenylyl cyclase (lean Zucker rats). Further, in the assay on adenylyl cyclase (second replicate, PP treated fatty Zucker rats (200 μg/day/kg s.c., five days)), the “maximal adenylyl cyclase activation by glucagon” value worked out at 60.2±1.5 pmol cAMP/min/mg. For the same molecule, the “labeling of G proteins migrating at 41 kDa, result in words” value in assay [2] is listed as “concentration-dependent increase in labeling”. Further, the “maximal increase in AA-[32P]GTP labeling of G proteins migrating at 41 kDa” value in assay [2] (maximal effect) is listed as “approximately two-fold”. At glucagon receptor [3] (either phenotype (lean and fatty Zucker rats), PP 200 μg/day/kg s.c. five days), the “effect of PP treatment on total glucagon binding sites” value was “failed to alter total glucagon binding sites”. In addition, the “Bmax, total glucagon binding sites” value on glucagon receptor [3] (liver membranes of fatty Zucker rats treated with PP 200 μg/day/kg s.c. for five days) was found to be 569 ± 45 fmol/mg. Further, the “effect of PP treatment on hepatic Gs α expression” value is recorded as “decreased hepatic expression of Gs α to levels similar to that seen in lean rats” in the assay on Gs α (fatty Zucker rats) and “not altered” with Gs α (lean Zucker rats).
“angiotensin II (DRVYIHPF; Angiotensin-2; UniProt P01019 25-32, looked up) [positive control that couples to pertussis-sensitive G proteins, reference compound]”: in assay [2] (1 μM), the “increase in AA-[32P]GTP labeling of G protein(s) migrating at 41 kDa” value was “two-fold”.
